Consider four compounds from ChEMBL document CHEMBL2413062, “Effect of single pyrrole replacement with β-alanine on DNA binding affinity and sequence specificity of hairpin pyrrole/imidazole polyamides targeting 5'-GCGC-3'” (Bioorg Med Chem, 2013).

Molecules are shown by their SMILES.

Assay [1] can be described thus: Binding affinity to hair pin DNA ODN3 5'-XGCCAGCACGGCTTTTGCCGTGCTGGC-3' (unknown origin) by surface plasmon resonance analysis.
The nature of assay [2]: Binding affinity to hair pin DNA ODN2 5'-XGCCAGTGCGGCTTTTGCCGCACTGGC-3' (unknown origin) by surface plasmon resonance analysis.
Assay [3] can be described thus: Binding affinity to hair pin DNA ODN4 5'-XGCCATGACGGCTTTTGCCGTACTGGC-3' (unknown origin) by surface plasmon resonance analysis.
Assay [4] in a line: Binding affinity to hair pin DNA ODN1 5'-XGCCAGCGCGGCTTTTGCCGCGCTGGC-3' (unknown origin) by surface plasmon resonance analysis.
Assay [5] is described as follows: Selectivity ratio of Kd for mismatched hair pin DNA ODN3 5'-XGCCAGCACGGCTTTTGCCGTGCTGGC-3' (unknown origin) to Kd for hair pin DNA ODN1 5'-XGCCAGCGCGGCTTTTGCCGCGCTGGC-3' (unknown origin).
The nature of assay [6]: Selectivity ratio of Kd for mismatched hair pin DNA ODN4 5'-XGCCATGACGGCTTTTGCCGTACTGGC-3' (unknown origin) to Kd for hair pin DNA ODN1 5'-XGCCAGCGCGGCTTTTGCCGCGCTGGC-3' (unknown origin).
Assay [7] in a line: Selectivity ratio of Kd for mismatched hair pin DNA ODN2 5'-XGCCAGTGCGGCTTTTGCCGCACTGGC-3' (unknown origin) to Kd for hair pin DNA ODN1 5'-XGCCAGCGCGGCTTTTGCCGCGCTGGC-3' (unknown origin).

`CN(C)CCCNC(=O)CCNC(=O)c1cc(NC(=O)c2nc(NC(=O)c3cc(NC(=O)c4nc(NC(=O)CCCNC(=O)c5cc(NC(=O)c6nc(NC(=O)CCNC(=O)c7nc(NC(=O)CCNC(=O)CCN)cn7C)cn6C)cn5C)cn4C)cn3C)cn2C)cn1C`: the Kd stood at 11 nM in assay [1], 89 nM in assay [2], 47 nM in assay [3] and 0.44 nM in assay [4].

For the compound `CN(C)CCCNC(=O)CCNC(=O)c1cc(NC(=O)c2nc(NC(=O)CCNC(=O)c3nc(NC(=O)CCCNC(=O)c4cc(NC(=O)c5nc(NC(=O)CCNC(=O)c6nc(NC(=O)CCNC(=O)CCN)cn6C)cn5C)cn4C)cn3C)cn2C)cn1C`, the Kd in assay [1] stood at 11 nM; in assay [2], 11 nM; in assay [3], 18 nM; in assay [4], 0.63 nM. Moreover, the Ratio in assay [5] was found to be 17; in assay [6], 29; in assay [7], 17.

For the compound `CN(C)CCCNC(=O)CCNC(=O)c1cc(NC(=O)c2nc(NC(=O)CCNC(=O)c3nc(NC(=O)CCCNC(=O)c4cc(NC(=O)c5nc(NC(=O)c6cc(NC(=O)c7nc(NC(=O)CCNC(=O)CCN)cn7C)cn6C)cn5C)cn4C)cn3C)cn2C)cn1C`, the Kd was found to be 83 nM in assay [1], 11 nM in assay [2], 190 nM in assay [3] and 0.7 nM in assay [4]. Moreover, the Ratio in assay [5] came out at 120; in assay [6], 270; in assay [7] it was 16.

As for `CN(C)CCCNC(=O)CCNC(=O)c1cc(NC(=O)c2nc(NC(=O)c3cc(NC(=O)c4nc(NC(=O)CCCNC(=O)c5cc(NC(=O)c6nc(NC(=O)c7cc(NC(=O)c8nc(NC(=O)CCNC(=O)CCN)cn8C)cn7C)cn6C)cn5C)cn4C)cn3C)cn2C)cn1C`, the Kd is 63000 nM in assay [1], 68000 nM in assay [2], 82000 nM in assay [3] and 270 nM in assay [4]. The Ratio in assay [5] was 230; in assay [6], 300; in assay [7], 250.
